Reference: patent US6309679A, “Method of improving processes using pectinase enzymes with noble gases” (American Air Liquide, priority 1995, dated 2001)

How the values were obtained:
Pectinase (EC 3.2.1.15) = experiment: Pectinase/Pectin reaction gas run (spectrophotometric, 400 nm); assay type: biochemical, Aspergillus niger; details: maximum effect, percent change compared to air
Experimental: PECTINASE (EC 3.2.1.15) (P-9932)/PECTIN (P-9135) GAS RUN PROTOCOL
PURPOSE: Effect of Air, Ne, Ar, Kr, Xe, N2 and O2 on Pectinase/Pectin reaction at 10° C., 25° C. and 35° C. (one substrate concentration).
ENZYME: Pectinase (Sigma No. P-9932) from Aspergillus niger Solution in 25-45% glycerol (actual glycerol content on label)
Unit Definition: one unit will liberate 1.0 μmole of galacturonic acid from polygalacturonic acid per min at pH 4.0 at 25° C.
SUBSTRATE: Pectin (Sigma No. P-9135) from Citrus fruits
Soln A: 0.1 M Citric acid--sodium citrate, pH 4.0 at 25° C. Dissolve 7.6 g citric acid and 12.05 g sodium citrate in 1 liter of DI H2 O. Adjust pH to 4.0. pH25° C. =4.013
Soln B: 1% Pectin in DI H2 O Boil 100 ml DI H2 O. Add 1 g pectin, stir by hand. Cover, boil for 2 minutes, stir by hand, boil for an additional 1 minute. Remove from heat and let cool for 10 minutes.
Soln C: Pectinase (50 U/ml) in Soln A Dilute 43.5 ml Pectinase to 50 ml with Soln A. Store in an amber bottle and refrigerate.
R=2.0 ml Soln B+0.5 ml Soln A
Fill the cuvettes with 2.0 ml of Soln B with a 1 cc syringe.
Fill 8 serum vials with 5.0 ml of Soln C Stopper and crimp to effect a gas tight system.
(§1) Bubble 4×30 cc of the appropriate gas in T1G1 . . . 5 cuvettes. Refrigerate under 2×10 cc of the appropriate gas. Keep refrigerated at least 15 minutes before running.
Remove G1 . . . 5 serum vials from fridge. Sample Soln C with 1 cc syringes previously filled with the appropriate gas. Slide the syringes/needle through the silicone but not into the liquid layer, simultaneously push plungers into the liquid and push the plungers simultaneously, THEN IT WILL BE NECESSARY TO PULL AND PUSH PLUNGER FOUR TIMES TO EFFECT MIXING OF THE SUBSTRATE AND ENZYME IN THE CUVETTES, run timedrives.
(§2) Bubble 4×30 cc of the appropriate gas in T2G1 . . . 5 cuvettes. Refrigerate under 2×10 cc of the appropriate gas. Keep refrigerated at least 15 minutes before running.
(§3) Bubble 4×30 cc of the appropriate gas in T3G1 . . . 5 cuvettes. Refrigerate under 2×10 cc of the appropriate gas. Keep refrigerated at least 15 minutes before running.

[1] = test system: Pectinesterase (EC 3.1.1.11); experiment: Pectinesterase/p-Nitrophenyl acetate reaction gas run (spectrophotometric, 400 nm); assay type: biochemical, Orange Peel; details: maximum effect, percent change compared to air
Experimental: PECTINESTERASE (P-5400)/p-NITROPHENYL ACETATE (N-8130) GAS RUN PROTOCOL
PURPOSE: Effect of Air, Ne, Ar, Kr, Xe, N2 and 02 on Pectinesterase/p-Nitrophenyl acetate reaction at 10° C., 25° C. and 35° C. (one substrate concentration).
ENZYME: Pectinesterase P-5400
Unit definition: one unit will release 1 μequivalent of acid from pectin per min at pH 7.5 at 30° C.
SUBSTRATE: p-Nitrophenyl acetate N-8130
Soln A: 0.1 M Citric acid--Na2 HPO4 buffer, pH 7.5 25° C.
Soln B: 50 mM Methanolic p-Nitrophenyl acetate (N-8130)
Soln C: p-Nitrophenyl acetate in Soln A
Soln D: Pectinesterase (100 Units/ml) in Soln A
R=2.0 ml Soln C+0.5 ml Soln A
Fill the cuvettes with 2.0 ml of Soln C with a 1 cc syringe.
Fill 8 serum vials with 5.0 ml of Soln D. Stopper and crimp to effect a gas tight system.
as §1
Remove G1 . . . 5 serum vials from fridge. Sample Soln D with 1 cc syringes previously filled with the appropriate gas. Slide the syringes/needle through the silicone but not into the liquid layer, simultaneously push plungers into the liquid and push the plungers simultaneously, run timedrives.
as §2, §3

Structure (SMILES) | Pectinase % Rate Difference (Pectinase (EC 3.2.1.15); 25° C.) | Pectinase % Rate Difference (Pectinase (EC 3.2.1.15); 35° C.) | Pectinase % Yield Difference (Pectinase (EC 3.2.1.15); 35° C.) | Pectinesterase % Rate Difference ([1]; 10° C.) | Pectinesterase % Rate Difference ([1]; 25° C.) | Pectinesterase % Yield Difference ([1]; 25° C.) | Pectinesterase % Rate Difference ([1]; 35° C.) | Pectinesterase % Yield Difference ([1]; 35° C.)
[Ar] [Ar, argon] | 6.4% | 18.3% | 8.0% | 5.0% | 17.7% | 2.1% | 0.8% | 0.70%
[Kr] [Kr, krypton] | 2.1% | 6.7% | 1.4% | 32.3% | 29.4% | 8.3% | 0.8% | 2.1%
[Ne] [Ne, neon] | 4.3% | 3.3% | 3.3% | 19.4% | 0.0% | 0.37% | 1.6% | 1.4%
[Xe] [Xe, xenon] | 0.0% | 15.0% | 7.0% | 29.0% | 2.0% | 0.70% | 3.3% | 0.0%
